One series deals with T1, human PD-L1 (Homo sapiens, UniProt Q9NZQ7).
T1 construct: pET-21b plasmid carrying the PD-L1 gene (amino acids 18–134); made in house; host or cells: Escherichia coli BL21
Briefly: 1H NMR titration with human PD-L1. The series is classed as binding. The note with it: molar ratio 1:1. On the procedure:
NMR spectra were recorded in PBS pH 7.4 containing 10% (v/v) of D2O added to the samples to provide the lock signal. Water suppression was carried out using the WATERGATE sequence. All the spectra were recorded at 300 K using a Bruker AVANCE 600 MHz spectrometer with the cryo-platform. The spectra were recorded at the ligand/protein ratio of 1:1, unless stated otherwise. The samples were prepared by adding small amounts of a 50 mM ligand stock solution in DMSO to the protein solution (0.20 mL) of PD-L1 fragment at a concentration of 0.2 mM. Spectra were visualized using TopSpin 4.0.2.

A further series concerns the target PD-1/PD-L1 complex (Homo sapiens, UniProt Q9NZQ7). Briefly: HTRF assay of PD-1/PD-L1 complex dissociation (CisBio).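 As to all read-outs here: human PD-L1 at 5 nM with human PD-1 at 50 nM, TR-FRET signal read after 2 h at room temperature, background removed via negative control and scaled to positive control.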 To be noted: for IC50: HTRF; for remaining activity at 0.005 µM: 2 h. For orientation: In TR-FRET formats the signal depends on donor and acceptor labels being close together.
The target in the next series is T2, PD-1/PD-L1 interaction (Homo sapiens, UniProt Q9NZQ7).
T2 construct: host or cells: CHO-K1 (CHO/TCRAct/PD-L1) and Jurkat effector cells
Briefly: PD-1/PD-L1 ICB assay (Jurkat-ECs with CHO/TCRAct/PD-L1 cells, luciferase). The series is classed as cell-based. The note with it: Jurkat-ECs with CHO/TCRAct/PD-L1, 6 h; SI csv; read-out: Bioactivity (EC50 in the ICB assay). On the procedure: After a successful optimization of the terphenyl compounds, the activity of the optimized molecules 7a and 8a–j in a cellular context was assessed. To this end, we first performed the PD-1/PD-L1 ICB assay. In this assay, T-cell receptor (TCR)-mediated activation of Jurkat effector cells (Jurkat-ECs) is reduced by the presence of PD-L1, exposed at the surface of CHO/TCRAct/PD-L1 cells (Figure 3A).
The functional assay of the blockade of PD-1/PD-L1 interaction in vitro (PD-1/PD-L1 Blockade Bioassay, Promega) was performed according to the manufacturer’s protocol. CHO/TCRAct/PD-L1 cells or CHO/TCRAct or CHO-K1 cells were seeded on 96-well white plates at the density of 10,000 cells/well and the next day overlaid with Jurkat T cells (20,000 cells/well) in the presence of increasing concentrations of the compounds with DMSO only as a control (the concentration of DMSO was kept constant at 0.1%) or atezolizumab, as a positive control, anti-PD-L1 monoclonal antibody (Selleckchem). The 2.5-fold dilutions of atezolizumab were prepared in the assay buffer (RPMI 1640 + 1% FBS) on the day of the assay. Activation of the Jurkat T cells, reflected by luciferase activity, was monitored by luminescence measurements after 6 h of incubation (37 °C, 5% CO2), and 20 min of additional incubation with the Bio-Glo assay reagent (Promega) at room temperature. The luminescence was read on a Spark microplate reader (Tecan). The data are presented as fold induction of the luminescence signal relative to either untreated (for atezolizumab) or DMSO-treated (for compound) cells. Data points represent mean ± SD values from three to five independent experiments. Half-maximal effective concentrations (EC50 values) were calculated from the Hill curve fitting to the experimental data using Origin Pro 2020 software (OriginLab).

Series [1] in a line: Cytotoxicity assay toward Jurkat-ECs. It is filed as cell-based. The note with it: human, Jurkat-EC cells, SI csv. On the procedure: The cytotoxicity of compounds was verified toward Jurkat-ECs since these cells provide the readout in the ICB assay and present a much higher degree of susceptibility to the compounds’ toxicity than CHO-K1 cells (not shown). Jurkat-ECs were seeded on 96-well transparent plates in the presence of increasing concentrations of the compounds with DMSO-treated cells as a control. The concentration of DMSO was kept constant (0.1%). After 48 h of incubation, a tetrazolium reagent, Biolog redox dye MIX MB (Biolog), was added according to the manufacturer’s protocol, and the culture plates were incubated for an additional 2 h (37 °C, 5% CO2). The absorbance was measured using a Spark microplate reader (Tecan) at 590 nm with 750 nm as a reference. The data are presented as Jurkat-EC survival relative to DMSO-treated control cells. Data points represent mean ± SD values from three independent experiments. Half-maximal effective concentrations (EC50 values) were calculated from the dose–response curve using OriginPro 2020 (OriginLab) software.

Series [2] concerns primary CD4+ and CD8+ T cells (PBMCs). Briefly: T-cell activation (TCA) assay, PBMCs with CHO/TCRAct/PD-L1 cells, flow cytometry. It is filed as cell-based, human. To be noted: 48 h; compounds 0.1, 0.5, 2.5 μM; mAbs 5 μg/mL. On the procedure:
A standard ICB assay relies on artificial Jurkat-ECs, which are surrogates of T-cells. To verify the potential of the compounds to reactivate the PD-L1-blocked primary T cells, a modified assay termed T-cell activation (TCA) was carried out.[32] In this assay, human primary peripheral blood mononuclear cells (PBMCs) are allowed to make contact with CHO/TCRAct/PD-L1 cells alone or in the presence of PD-1/PD-L1 blockers, and the activation of CD4^+ and CD8^+ T cell is monitored by flow cytometry.
Anticoagulant citrate dextrose-A-treated blood from healthy donors was purchased from the Regional Center of Blood Donation and Blood Therapy in Krakow, Poland. PBMCs were isolated from whole blood by density gradient centrifugation using Pancoll human separating solution (PAN-Biotech GmbH, Aidenbach, Germany). The separated cells were washed and resuspended in RPMI 1640 medium (Biowest) containing 10% FBS (Biowest). PBMCs were added at an amount of 3 × 10^5 to CHO, CHO/TCRAct, or CHO/TCRAct/PD-L1 cells preseeded on 24-well plates in the presence of either anti-PD-L1 mAbs (at the final concentration 5 μg/mL): durvalumab (Selleckchem), atezolizumab (Selleckchem), or avelumab (MedChemExpress) or tested compounds at the concentrations 0.1, 0.5, and 2.5 μM. Untreated cells were used as controls for antibody treatment, while DMSO-treated cells [0.1% (v/v)] were used as controls for compound treatment. The cells were incubated for 48 h (37 °C, 5% CO2) and then detached from the plates with TrypLe Select Enzyme (Thermo Fisher). PBMCs were stained for 20 min at room temperature with the antibodies: anti-CD4-FITC, anti-CD8-BV510, anti-CD69-APC, anti-CD25-PE, anti-HLA-DR-PerCP, and anti-PD1-PECy7 (Becton Dickinson Biosciences, BD). Following two washing steps, the cells were analyzed with a FACSCanto II cytometer. Data analysis was carried out with FlowJo software, followed by statistical significance calculations done with Origin Pro 2020 software (OriginLab). Statistical significance was analyzed with one-way analysis of variance (ANOVA), followed by the Fisher’s posthoc test: *p < 0.05, **p < 0.01, […].
(Flow cytometry measures light scatter and fluorescence of single cells or particles in a stream.)

Where [3] appears, read: read-out: % of undissociated complex at 5 nM.
Setting [4] is: read-out: HTRF % of the undissociated complex at 5 nM.
[5] abbreviates: Table 4, <1.00 = limit of quantification reached.

The text below walks through data of article PMC8365601, “Terphenyl-Based Small-Molecule Inhibitors of Programmed Cell Death-1/Programmed Death-Ligand 1 Protein–Protein Interaction” (Journal of Medicinal Chemistry, 2021).

In general, IC50 refers to the midpoint of a concentration-inhibition curve. A lower IC50 goes with inhibition by little substance. A word on the EC50: it is the concentration giving half of the maximal effect.

Read-outs that look alike come from different tables or passages of the source.

T1 sequence (Q9NZQ7 18-134): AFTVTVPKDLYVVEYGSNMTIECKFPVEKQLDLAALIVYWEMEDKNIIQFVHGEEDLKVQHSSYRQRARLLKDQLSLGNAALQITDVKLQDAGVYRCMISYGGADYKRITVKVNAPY
T2 sequence (Q9NZQ7 19-290): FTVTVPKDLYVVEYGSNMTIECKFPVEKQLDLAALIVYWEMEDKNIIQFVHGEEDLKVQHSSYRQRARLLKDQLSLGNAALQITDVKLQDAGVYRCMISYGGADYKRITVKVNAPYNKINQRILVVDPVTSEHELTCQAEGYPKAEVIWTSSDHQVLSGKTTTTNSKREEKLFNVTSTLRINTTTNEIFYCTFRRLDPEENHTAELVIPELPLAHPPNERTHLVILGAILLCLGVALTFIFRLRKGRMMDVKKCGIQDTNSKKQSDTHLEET
Chain of PD-1/PD-L1 complex (Q9NZQ7 19-238 limits assumed, one chain of several): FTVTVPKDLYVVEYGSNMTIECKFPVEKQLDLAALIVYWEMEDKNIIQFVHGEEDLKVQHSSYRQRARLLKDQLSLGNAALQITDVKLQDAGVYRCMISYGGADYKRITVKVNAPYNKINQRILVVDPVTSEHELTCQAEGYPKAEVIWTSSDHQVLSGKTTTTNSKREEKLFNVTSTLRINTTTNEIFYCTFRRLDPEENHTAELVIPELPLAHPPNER
Method for PD-1/PD-L1 complex: HTRF was performed using the certified CisBio assay according to the manufacturer’s guidelines. The experiments were performed at 5 nM h-PD-L1 and 50 nM hPD-1 in the final formulation at 20 μL final volume in the well. To determine the half-maximal inhibitory concentration (IC50) of tested compounds, measurements were performed on two individual dilution series, unless states otherwise. After mixing all components according to the CisBio protocol, the plate was left for 2 h incubation at room temperature, followed by time-resolved fluorescence energy transfer (TR-FRET) measurement on Tecan Spark 20M. Collected data were background-subtracted on the negative control, normalized on the positive control, averaged, and fitted with normalized Hill’s equation to determine the IC50 value using Mathematica 12.

Take `Cc1c(-c2ccc(CO)cc2)cccc1-c1ccc2c(c1)OCCO2` [4a, (3′-(Benzo-1,4-dioxan-6-yl)-2′-methyl-[1,1′-biphenyl]-4-yl)methanol]: at human PD-L1, the “change of hPD-L1 1H NMR spectrum on adding compound” value (“change of hPD-L1 1H NMR spectrum” below) is “broadening of the hPD-L1 proton signals”. Further, the IC50 on PD-1/PD-L1 complex (Table 1) came to 5520 ± 40 nM.

`COc1cc(-c2cccc(-c3ccc4c(c3)OCCO4)c2Cl)ccc1CNCCNC(C)=O` [7a, N-(2-(((3′-(Benzo-1,4-dioxan-6-yl)-2′-chloro-3-methoxy-[1,1′-biphenyl]-4-yl)methyl)amino)ethyl)acetamide]: the “change of hPD-L1 1H NMR spectrum” value at human PD-L1 is listed as “broadening of the hPD-L1 proton signals”. The EC50 on PD-1/PD-L1 interaction is 2820 ± 400 nM. Besides, the EC50 at 48 h in series [1] stood at 3190 ± 410 nM. Further, the complex dissociation result on PD-1/PD-L1 complex (5 nM ligand) was “complete complex dissociation”. The remaining activity at 0.005 µM on PD-1/PD-L1 complex (setting [3]) and at PD-1/PD-L1 complex (setting [4]) was 0% throughout. The compound further registered an IC50 against PD-1/PD-L1 complex (Table 3) of 0.82 ± 0.02 nM.

Take `CC(=O)NCCNCc1ccc(-c2cccc(-c3ccc4c(c3)OCCO4)c2Cl)cc1OCC#N` [7e, N-(2-(((3′-(Benzo-1,4-dioxan-6-yl)-2′-chloro-3-(cyanomethoxy)-[1,1′-biphenyl]-4-yl)methyl)amino)ethyl)acetamide]: the “change of hPD-L1 1H NMR spectrum” value on human PD-L1 is listed as “broadening of the hPD-L1 proton signals”. This compound gave a complex dissociation on PD-1/PD-L1 complex (5 nM ligand) of 99%. Also, the remaining activity at 0.005 µM at PD-1/PD-L1 complex (setting [3]) and on PD-1/PD-L1 complex (setting [4]) was 1% throughout.

On to `COc1cc(-c2cccc(-c3ccc4c(c3)OCCO4)c2Cl)ccc1CN1CCNCC1` [8a, 1-((3′-(Benzo-1,4-dioxan-6-yl)-2′-chloro-3-methoxy-[1,1′-biphenyl]-4-yl)methyl)piperazine], for which the remaining activity at 0.005 µM on PD-1/PD-L1 complex (setting [3]) and on PD-1/PD-L1 complex (setting [4]) was 38% in each case. On PD-1/PD-L1 complex (setting [5]), this compound gave an IC50 of 18.09 ± 0.09 nM.

On to `COc1cc(-c2cccc(-c3ccc4c(c3)OCCO4)c2Cl)ccc1CN1CCN(C(N)=O)CC1` [8b, 4-((3′-(Benzo-1,4-dioxan-6-yl)-2′-chloro-3-methoxy-[1,1′-biphenyl]-4-yl)methyl)piperazine-1-carboxamide], for which the remaining activity at 0.005 µM on PD-1/PD-L1 complex (setting [3]) and on PD-1/PD-L1 complex (setting [4]) was 28% in each case. Also, the IC50 at PD-1/PD-L1 complex (setting [5]) is under 1 nM.

`COc1cc(-c2cccc(-c3ccc4c(c3)OCCO4)c2Cl)ccc1CN1CCN(C(C)=O)CC1` [8c, 1-(4-((3′-(Benzo-1,4-dioxan-6-yl)-2′-chloro-3-methoxy-[1,1′-biphenyl]-4-yl)methyl)piperazin-1-yl)ethan-1-one]: the remaining activity at 0.005 µM on PD-1/PD-L1 complex (setting [3]) and on PD-1/PD-L1 complex (setting [4]) was 40% throughout. The compound also showed an IC50 against PD-1/PD-L1 complex (setting [5]) of under 1 nM.

On to `COc1cc(-c2cccc(-c3ccc4c(c3)OCCO4)c2Cl)ccc1CN1CCN(C(=O)CN)CC1` [8d, 2-Amino-1-(4-((3′-(benzo-1,4-dioxan-6-yl)-2′-chloro-3-methoxy-[1,1′-biphenyl]-4-yl)methyl)piperazin-1-yl)ethan-1-one], for which the “% of the undissociated (remaining) complex” value on PD-1/PD-L1 complex (5 nM ligand) is 5%. Moreover, the remaining activity at 0.005 µM on PD-1/PD-L1 complex (setting [3]) and at PD-1/PD-L1 complex (setting [4]) was 5% throughout. Moreover, the IC50 against PD-1/PD-L1 complex (setting [5]) is under 1 nM.

For the compound `COc1cc(-c2cccc(-c3ccc4c(c3)OCCO4)c2Cl)ccc1CN1CCN(S(C)(=O)=O)CC1` [8e, 1-((3′-(Benzo-1,4-dioxan-6-yl)-2′-chloro-3-methoxy-[1,1′-biphenyl]-4-yl)methyl)-4-(methylsulfonyl)piperazine], the remaining activity at 0.005 µM at PD-1/PD-L1 complex (setting [3]) and at PD-1/PD-L1 complex (setting [4]) was 88% throughout. The IC50 against PD-1/PD-L1 complex (setting [5]) is 104 ± 2.17 nM.

Regarding `COc1cc(-c2cccc(-c3ccc4c(c3)OCCO4)c2Cl)ccc1CNCCNC(=O)CN` [8f, 2-Amino-N-(2-(((3′-(benzo-1,4-dioxan-6-yl)-2′-chloro-3-methoxy-[1,1′-biphenyl]-4-yl)methyl)amino)ethyl)acetamide], at PD-1/PD-L1 interaction, the EC50 turned out to be 3280 ± 600 nM. For the same compound, the EC50 at 48 h in series [1] stood at 3100 ± 220 nM. Also, the remaining activity at 0.005 µM at PD-1/PD-L1 complex (setting [3]) and on PD-1/PD-L1 complex (setting [4]) was 8% in each case. The IC50 on PD-1/PD-L1 complex (setting [5]) was under 1 nM.

As for `COc1cc(-c2cccc(-c3ccc4c(c3)OCCO4)c2Cl)ccc1CNCCNS(C)(=O)=O` [8g, N-(2-(((3′-(Benzo-1,4-dioxan-6-yl)-2′-chloro-3-methoxy-[1,1′-biphenyl]-4-yl)methyl)amino)ethyl)methanesulfonamide], the EC50 at PD-1/PD-L1 interaction was 11100 ± 4350 nM. This compound also returned an EC50 at 48 h in series [1] of 4470 ± 580 nM. The remaining activity at 0.005 µM at PD-1/PD-L1 complex (setting [3]) and on PD-1/PD-L1 complex (setting [4]) was 32% throughout. The compound also returned an IC50 against PD-1/PD-L1 complex (setting [5]) of 2.07 ± 0.04 nM.

Consider “avelumab: therapeutic anti-PD-L1 antibody”, for which the “numbers of PD-1-positive T cells” value in series [2] was “increases the expression of PD-1 on T-cells”.

Turning to “durvalumab: therapeutic anti-PD-L1 antibody”, the “numbers of PD-1-positive T cells” value in series [2] was “increases the expression of PD-1 on T-cells”.
